According to EP2601952A1, “Novel pharmaceutically acceptable salts and cocrystals of 5-chloro-3-(4-methanesulfonylphenyl)-6'-methyl-[2,3']bipyridinyl and their therapeutic uses” (Zentiva, k.s., priority 2011, dated 2013):

How the values were obtained:
[1] = anhydrous crystalline forms I, II, III, IV and V; Journal of Pharmaceutical Sciences, 95, 1, 56-69 (2006); cited from earlier work
[2] = Polymorphic stability: maturation / slurrying of the salts in various solvents; format: physicochemical
Protocol: Example 6: Method for assessing polymorphic stability of the succinic acid salt and Form A of the fumaric acid salt of 5-chloro-3-(4-methanesulfonylphenyl)-6'-methyl-[2,3']bipyridinyl.
Approximately 50-100 mg of the salts under investigation were suspended in 1ml of water, ethanol, 1-propanol, 2-propanol, 1-butanol, 2-butanol, tert-butanol, 1-pentanol, acetone, methyl ethyl ketone, isobutyl methyl ketone, ethyl formate, methyl acetate, ethyl acetate, propyl acetate, isopropyl acetate, butyl acetate, isobutyl acetate, tetrahydrofuran, 1,4-dioxane, toluene, acetonitrile and N-methyl pyrrolidine. […] The excess solvent was removed and the samples evaporated to dryness in a vacuum oven at 25 °C.

[3] = DVS isotherm (hygroscopicity, hydrate formation); format: physicochemical; settings: for hygroscopicity: DVS isotherm plot (Figure 4 / Figure 11)

Structure (SMILES)	instability of anhydrous crystalline forms [1]	polymorphic conversion on slurrying ([2]; slurrying in an aliphatic alcohol or cyclic ether)	hygroscopicity [3]	polymorphic changes when maturated in various solvents ([2]; Example 6: suspended in 1 ml of solvent, agitated at 25°C for 35 days)	stability with respect to hydrate formation ([3]; DVS isotherm plot, Figure 4)
Cc1ccc(-c2ncc(Cl)cc2-c2ccc(S(C)(=O)=O)cc2)cn1 [etoricoxib, 5-Chloro-3-(4-methanesulfonylphenyl)-6'-methyl-[2,3']bipyridinyl]	convert to hemihydrate	–	–	–	–
Cc1ccc(-c2ncc(Cl)cc2-c2ccc(S(C)(=O)=O)cc2)cn1.O=C(O)/C=C/C(=O)O [Form A of the fumaric acid salt, fumaric acid salt of 5-chloro-3-(4-methanesulfonylphenyl)-6'-methyl-[2,3']bipyridinyl]	–	Form B can be generated	relatively non-hygroscopic	–	–
Cc1ccc(-c2ncc(Cl)cc2-c2ccc(S(C)(=O)=O)cc2)cn1.O=C(O)CCC(=O)O [succinic acid salt, succinic acid salt of 5-chloro-3-(4-methanesulfonylphenyl)-6'-methyl-[2,3']bipyridinyl]	–	–	relatively non-hygroscopic	lack of observed polymorphic changes	stable with respect to hydrate formation
